# Measurements as given in US20240282401A1, “METHODS FOR ENZYME ENGINEERING” (The University of Manchester, priority 2021, published 2024).
# Biological target: T1, HDNO D6 (Paenarthrobacter nicotinovorans, UniProt P08159, A237T/A42S/E349L/E351D/N413H/V430A)
# T1 construct: This full-length gene design was then used to introduce genetic diversity to create a library; His tag (N); made in house; host or cells: E. coli BL21 (DE3)
# Assay: Biotransformation turnover frequencies of amine substrates (GC-FID)
# Assay type: biochemical, Arthrobacter nicotinovorans
# Settings: for TOF: HDNO D6 0.05 mg mL^−1, 10 mM substrate, 30° C., pH 8 100 mM buffer, conversions after 10 min; for Fold increase vs D2: TOF of HDNO D6 over HDNO D2 (0.2 mg ml^−1)
# Procedure: Chiral normal phase HPLC was performed on an Agilent HPLC system (G1379A degasser, G1312A binary pump, a G1367A well plate autosampler unit, a G1316A temperature-controlled column compartment and a G1315C diode array detector) (Agilent Technologies Inc., Santa Clara, CA) equipped with a CHIRALCEL OD-H (250 mm length, 4.6 mm diameter, 5 μm particle size) analytical column (Daicel Corp., Osaka, Japan). The typical injection volume was 10 μL and chromatograms were monitored at 265 nm. Gas chromatographic (GC) analysis was performed on an Agilent 6850 GC (Agilent Technologies Inc., Santa Clara, CA) with a flame ionization detector and autosampler equipped with a HP-1 column of length 30 m, 0.32 mm inner diameter and 0.25 μm film thickness (Agilent Technologies Inc., Santa Clara, CA).
# A typical 500 μL reaction mixture in a 2 mL tube contained 10 mM amine, 0.05 to 1 mg mL^−1 of purified HDNO variant in pH 8 100 mM NaPi buffer. Reactions were incubated at 30° C. with 250 r.p.m shaking for different reaction times, after which they were quenched by the addition of 50 μL of 10 M NaOH and extracted twice with 500 μL tert-butyl methyl ether (HPLC grade, Merck Life Science UK Limited, Gillingham). The organic fractions were combined and dried over anhydrous MgSO4 and analysed by GC-FID (conversions) or HPLC (enantiomeric ratios) on a chiral stationary phase (see Chromatography section for details). Turnover frequencies (TOF, min^−1) were calculated as the moles of product formed/moles of enzyme min^−1 based on conversions obtained by GC-FID analysis (see Chromatography method). The same response factor was considered for both substrate and product.
# T1 sequence (P08159 other isoform, or with tags, fused parts or gaps A42S/A237T/E349L/E351D/N413H/V430A/C432S): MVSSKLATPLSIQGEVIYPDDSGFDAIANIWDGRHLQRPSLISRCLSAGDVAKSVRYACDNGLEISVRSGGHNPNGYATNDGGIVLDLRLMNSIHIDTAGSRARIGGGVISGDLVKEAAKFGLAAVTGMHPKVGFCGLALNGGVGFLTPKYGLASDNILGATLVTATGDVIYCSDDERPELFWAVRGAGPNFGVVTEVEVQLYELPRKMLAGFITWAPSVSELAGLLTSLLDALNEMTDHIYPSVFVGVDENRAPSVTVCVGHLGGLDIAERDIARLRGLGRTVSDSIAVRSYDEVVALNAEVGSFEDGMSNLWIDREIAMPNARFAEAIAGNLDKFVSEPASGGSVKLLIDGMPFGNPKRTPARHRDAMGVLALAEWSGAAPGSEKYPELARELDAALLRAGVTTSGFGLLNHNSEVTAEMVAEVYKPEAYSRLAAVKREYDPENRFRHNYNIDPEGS
Compound,TOF,Fold increase vs D2
"c1ccc([C@H]2CCCN2)cc1 [Mutant 1a, (R)-2-phenylpyrrolidine]",79.8 min⁻¹,5.8 fold
"CN(C)c1ccc(C2CCCN2)cc1 (centres unmarked) [Mutant 1b, 2-(4-dimethylaminophenyl)-pyrrolidine]",181.2 min⁻¹,10.2 fold
c1ccc(CCC2CCCN2)cc1 (centres unmarked) [Mutant 1c],28.8 min⁻¹,5.9 fold
Clc1cccc(C2CCCN2)c1 (centres unmarked) [Mutant 1d],135.6 min⁻¹,–
c1ccc(CCC2CCCCN2)cc1 (centres unmarked) [Mutant 1f],8.4 min⁻¹,–
CC(N)c1ccccc1 (centres unmarked) [Mutant 1g],0.66 min⁻¹,–
CCCCC[C@@H](C)N [Mutant 1h],0.42 min⁻¹,–
C1CC2CNCC2C1 (centres unmarked) [Mutant 1i],no measurable activity,–
